Laboratory results as given in the NIST ThermoML archive (doi:10.1016/j.jct.2017.02.024).

Assay: mn = molality of the nth substance listed, in mol/kg
Conditions: 100 kPa, Liquid; for viscosity: Capillary tube (Ostwald / Ubbelohde) method; for mass density: Vibrating tube method

NCC(=O)O [2-aminoacetic acid] + O
Conditions	mass density, 293.15 K [kg/m3]	mass density, 303.15 K [kg/m3]	mass density, 313.15 K [kg/m3]	mass density, 323.15 K [kg/m3]	viscosity, 293.15 K [mPa·s]	viscosity, 303.15 K [mPa·s]	viscosity, 313.15 K [mPa·s]	viscosity, 323.15 K [mPa·s]
m1 = 0.1	1001.39	998.81	–	991.09	1.014	0.809	0.663	0.556
m1 = 0.2	1004.56	1001.91	–	994.12	1.027	0.82	0.673	0.565
m1 = 0.3	1007.67	1004.97	1001.42	997.11	1.041	0.832	0.683	0.574
m1 = 0.4	1010.73	1007.98	1004.4	1000.05	1.055	0.844	0.693	0.582
m1 = 0.5	1013.74	1010.94	1007.32	1002.96	1.07	0.856	0.704	0.591
m1 = 0.6	1016.72	1013.87	1010.23	1005.85	1.085	0.868	0.714	0.6
m1 = 0.7	1019.66	1016.75	1013.06	1008.69	1.101	0.881	0.724	0.61

CC(C)[C@H](N)C(=O)O [L-valine] + O
Conditions	mass density, 293.15 K [kg/m3]	mass density, 303.15 K [kg/m3]	mass density, 313.15 K [kg/m3]	mass density, 323.15 K [kg/m3]	viscosity, 293.15 K [mPa·s]	viscosity, 303.15 K [mPa·s]	viscosity, 313.15 K [mPa·s]	viscosity, 323.15 K [mPa·s]
m1 = 0.1	1000.87	998.32	994.85	990.59	1.044	0.83	0.678	0.567
m1 = 0.2	1003.5	1000.9	997.4	993.09	1.088	0.864	0.704	0.587
m1 = 0.3	1006.05	1003.43	999.89	995.54	1.134	0.899	0.731	0.608
m1 = 0.4	1008.55	1005.9	1002.34	997.95	1.183	0.936	0.76	0.63

O [water] + N=C(N)NCCC[C@H](N)C(=O)O
m2 = 0
Conditions	mass density [kg/m3]	viscosity [mPa·s]
293.15 K	–	1.002
303.15 K	–	0.798
313.15 K	–	0.654
323.15 K	988.02	0.547

N=C(N)NCCC[C@H](N)C(=O)O [L-arginine] + O
Conditions	mass density, 293.15 K [kg/m3]	mass density, 303.15 K [kg/m3]	mass density, 313.15 K [kg/m3]	mass density, 323.15 K [kg/m3]	viscosity, 293.15 K [mPa·s]	viscosity, 303.15 K [mPa·s]	viscosity, 313.15 K [mPa·s]	viscosity, 323.15 K [mPa·s]
m1 = 0.1	1003.16	1000.56	997.08	992.8	1.054	0.837	0.684	0.572
m1 = 0.2	1007.98	1005.3	1001.76	997.43	1.109	0.879	0.716	0.598
m1 = 0.3	1012.67	1009.89	1006.3	1001.92	1.167	0.922	0.751	0.625
m1 = 0.4	1017.19	1014.33	1010.71	1006.3	1.229	0.969	0.786	0.653
m1 = 0.5	1021.57	1018.66	1014.97	1010.54	1.296	1.019	0.825	0.682
m1 = 0.6	1025.85	1022.85	1019.13	1014.68	1.366	1.069	0.863	0.713
m1 = 0.7	1030	1026.94	1023.18	1018.67	1.435	1.121	0.903	0.743

C[C@@H](O)[C@H](N)C(=O)O [L-threonine] + O
Conditions	mass density, 293.15 K [kg/m3]	mass density, 303.15 K [kg/m3]	mass density, 313.15 K [kg/m3]	mass density, 323.15 K [kg/m3]	viscosity, 293.15 K [mPa·s]	viscosity, 303.15 K [mPa·s]	viscosity, 313.15 K [mPa·s]	viscosity, 323.15 K [mPa·s]
m1 = 0.1	1002.4	999.82	996.36	992.09	1.035	0.823	0.673	0.563
m1 = 0.2	1006.54	1003.91	1000.4	996.09	1.07	0.85	0.694	0.579
m1 = 0.3	1010.59	1007.91	1004.35	1000.01	1.105	0.878	0.717	0.596
m1 = 0.4	1014.57	1011.83	1008.22	1003.85	1.143	0.907	0.739	0.615
m1 = 0.5	1018.46	1015.67	1012.03	1007.62	1.182	0.936	0.763	0.632
m1 = 0.6	1022.28	1019.43	1015.75	1011.32	1.221	0.967	0.787	0.651
m1 = 0.7	1026.03	1023.14	1019.41	1014.96	1.263	0.999	0.811	0.67

O [water] + C[C@H](N)C(=O)O
m2 = 0
Conditions	mass density [kg/m3]	viscosity [mPa·s]
293.15 K	–	1.002
303.15 K	–	0.798
313.15 K	–	0.654
323.15 K	988.02	0.547

O [water] + CC(C)[C@H](N)C(=O)O
m2 = 0
Conditions	mass density [kg/m3]	viscosity [mPa·s]
293.15 K	–	1.002
303.15 K	–	0.798
313.15 K	–	0.654
323.15 K	988.02	0.547

O [water] + NCC(=O)O
m2 = 0
Conditions	mass density [kg/m3]	viscosity [mPa·s]
293.15 K	–	1.002
303.15 K	–	0.798
313.15 K	–	0.654
323.15 K	988.02	0.547

C[C@H](N)C(=O)O [(S)-2-aminopropanoic acid] + O
Conditions	mass density, 293.15 K [kg/m3]	mass density, 303.15 K [kg/m3]	mass density, 313.15 K [kg/m3]	mass density, 323.15 K [kg/m3]	viscosity, 293.15 K [mPa·s]	viscosity, 303.15 K [mPa·s]	viscosity, 313.15 K [mPa·s]	viscosity, 323.15 K [mPa·s]
m1 = 0.1	1001.06	998.5	995.04	990.8	1.027	0.817	0.669	0.559
m1 = 0.2	1003.89	1001.29	997.81	993.55	1.053	0.837	0.684	0.571
m1 = 0.3	1006.66	1004.03	1000.5	996.24	1.079	0.857	0.7	0.584
m1 = 0.4	–	–	–	–	1.106	0.878	0.716	0.597
m1 = 0.401	1009.41	1006.73	1003.18	998.9	–	–	–	–
m1 = 0.5	1012.07	1009.37	1005.79	1001.49	1.134	0.898	0.733	0.611
m1 = 0.6	1014.71	1011.97	1008.36	1004.08	1.163	0.921	0.751	0.624
m1 = 0.7	1017.29	1014.52	1010.9	1006.6	1.193	0.943	0.768	0.638

O [water] + C[C@@H](O)[C@H](N)C(=O)O
m2 = 0
Conditions	mass density [kg/m3]	viscosity [mPa·s]
293.15 K	–	1.002
303.15 K	–	0.798
313.15 K	–	0.654
323.15 K	988.02	0.547

O [water] + OC[C@@H](O)[C@@H](O[C@H]1O[C@H](CO)[C@@H](O)[C@H](O)[C@H]1O)[C@H](O)[C@@H](O)CO
m2 = 0
Conditions	mass density [kg/m3]	viscosity [mPa·s]
293.15 K	–	1.002
303.15 K	–	0.798
313.15 K	–	0.654
323.15 K	988.02	0.547

OC[C@@H](O)[C@@H](O[C@H]1O[C@H](CO)[C@@H](O)[C@H](O)[C@H]1O)[C@H](O)[C@@H](O)CO [4-O-α-D-glucopyranosyl-D-glucitol] + O
Conditions	mass density, m1 = 0.2 [kg/m3]	mass density, m1 = 0.4 [kg/m3]	mass density, m1 = 0.6 [kg/m3]	mass density, m1 = 0.8 [kg/m3]	mass density, m1 = 1 [kg/m3]	viscosity, m1 = 0.2 [mPa·s]	viscosity, m1 = 0.4 [mPa·s]	viscosity, m1 = 0.6 [mPa·s]	viscosity, m1 = 0.8 [mPa·s]	viscosity, m1 = 1 [mPa·s]
293.15 K	1022.97	1045.59	1066.2	1085.31	1102.86	1.202	1.457	1.761	2.142	2.61
303.15 K	1020.13	1042.41	1062.88	1081.69	1099.07	0.95	1.134	1.353	1.626	1.954
313.15 K	1016.42	1038.47	1058.71	1077.36	1094.66	0.77	0.909	1.073	1.277	1.511
323.15 K	1012.07	1033.97	1054.01	1072.55	1089.71	0.641	0.747	0.874	1.027	1.204
